Legend:
[1] = Phase 1 single-dose crossover study in healthy subjects: plasma PAA and PAGN pharmacokinetics
Experimental: Plasma samples were analyzed for concentrations of phenylacetic acid (PAA), phenylacetylglutamine (PAGN) and ornithine (ORN) using a validated LC-MS/MS method. All urine samples were analyzed for concentrations of PAGN using a validated LC-MS/MS method.
Pharmacokinetics: Plasma concentration vs. time profiles of phenylacetate, ornithine, and phenylacetylglutamine following a single oral dose of each of the study drug were analyzed by noncompartmental PK methods. Pharmacokinetic parameters that were determined include Cmax, tmax, AUC0-t, AUC0-∞, C12 and t1/2.

hepatic encephalopathy = settings: cited from earlier work
[2] = Phase 1 study in healthy subjects: urinary excretion of PAGN over 24 hours; assay type: in vivo, human; settings: single oral dose; for Percent PAA Dose Excreted over 24 hours: urine as PAGN
Experimental: Plasma samples were separated by centrifugation within 1 hour of blood collection and stored at approximately −80° C. until analyzed. The total urine volume for each collection interval were measured and recorded and aliquots of urine were stored at approximately −80° C. until analyzed.

ammonia = settings: clinical study reported by Jalan et al. 2007; cited from earlier work

| Compound | time after dosing at which mean plasma PAGN Cmax occurred ([1]; single oral dose (10 g extended-release formulation or 6 mL RAVICTI)) | mean maximum concentration (Cmax) of plasma PAA ([1]; single oral dose (10 g extended-release formulation or 6 mL RAVICTI, each about 5 g PAA equivalent)) | incidence of hepatic encephalopathy events (hepatic encephalopathy; clinical studies, 6 mL twice daily) | efficacy for the treatment of hepatic encephalopathy (hepatic encephalopathy; clinical trials (Rockey et al., Hepatology 2014)) | PAA converted to PAGN excretion over 24 hours (conversion efficiency) ([2]; Table 2) | Percent PAA Dose Excreted over 24 hours ([2]; mean) | Percent PAA Dose Excreted over 24 hours ([2]; median) | Total PAGN Amount Excreted over 24 hours ([2]; urine, mean) | PAA Equivalents Excreted over 24 hours ([2]; urine, median) | Total PAGN Amount Excreted over 24 hours ([2]; urine, median) | ammonia lowering (ammonia) |
| --- | --- | --- | --- | --- | --- | --- | --- | --- | --- | --- | --- |
| O=C(CCCc1ccccc1)OCC(COC(=O)CCCc1ccccc1)OC(=O)CCCc1ccccc1 [RAVICTI®, glycerol phenylbutyrate] | approximately 5 hours | approximately 10 μg/mL | lower the incidence of hepatic encephalopathy events | preliminary efficacy | about 40% | 42.7% | 42.1% | 4.11 G | 2.09 G | 4.06 G |  |
| L-ornithine phenylacetate |  |  |  |  |  |  |  |  |  |  | useful in ammonia lowering |

Reference: patent publication US11219611B2 (Ocera Therapeutics, Inc., priority 2015, dated 2022)
